Results from US8343990B2, “Substituted cyclopropyl compounds, compositions containing such compounds and methods of treatment” (Merck Sharp & Dohme Corp., priority 2008, dated 2013).

Each molecule was assayed against T1, GPR119 receptor (UniProt Q8TDV5, S309L, species not given) (assay: GPR119 signaling, cyclic AMP (cAMP) homogenous time resolved fluorescence (HTRF) assay). Conditions: CHO cells with Gα15 and murine GPR119, or HEK293 Flp-In cells with human GPR119 S309L; table does not say which; read-out: Activity: inflection points, denoted as EC50 values (agonist activation of GPR119, cAMP).
T1 sequence (Q8TDV5 1-335 S309L): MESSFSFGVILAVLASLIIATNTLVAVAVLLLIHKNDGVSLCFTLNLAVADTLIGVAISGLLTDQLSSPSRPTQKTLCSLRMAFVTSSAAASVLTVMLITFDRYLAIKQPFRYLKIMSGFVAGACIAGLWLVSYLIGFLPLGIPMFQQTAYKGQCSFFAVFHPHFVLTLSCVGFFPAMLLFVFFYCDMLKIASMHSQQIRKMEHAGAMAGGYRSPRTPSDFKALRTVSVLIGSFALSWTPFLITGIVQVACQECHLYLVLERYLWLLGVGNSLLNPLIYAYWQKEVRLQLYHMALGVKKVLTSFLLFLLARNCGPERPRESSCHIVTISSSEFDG
Type: cell-based
Description: Measurement of GPR119 Signaling Using a Cyclic AMP (cAMP) Homogenous Time Resolved Fluorescence (HTRF) Assay
Chinese hamster ovary (CHO) cell lines stably transfected with the permissive guanine nucleotide binding protein alpha 15 (Gα15) and […] GPR119 were maintained in DMEM media containing FBS, penicillin-streptomycin, puromycin, and G418 (geneticin). Alternatively, human embryonic kidney (HEK)293 Flp-In cells (Invitrogen, Carlsbad, Calif.) were stably transfected with a human SNP variant (S309L) of GPR119 and maintained in DMEM media containing FBS, penicillin-streptomycin, and hygromycin. Agonist activation of the GPR119 receptor was measured in receptor transfected cells described above, treated with compounds of this invention, using a commercial homogenous time resolved fluorescence (HTRF) kit for measurement of cAMP (CisBio, Bedford, Mass.). The assay was performed in 96-well half-volume plates (murine) or 384-well plates (human) following the manufacturers instructions. Briefly, suspended cells were incubated with a dose titration of test compound at room temperature for 60 min, lysed, and incubated with HTRF reagents for an additional 60 min. The plate was read using an Envision multilabel reader (Perkin Elmer) adjusted to read time resolved fluorescence and the cAMP concentrations were extrapolated from a cAMP calibration curve. […] The concentration of test compound required to stimulate a half-maximal response (EC50), and efficacy as compared to an internal agonist control, was determined from a sigmoidal 4-parameter curve fit of the resulting plot of normalized activity versus compound concentration.
`Clc1cnc(N2CCC(C3CC3CCOc3ccc(-n4cccn4)cc3)CC2)nc1` (racemic) [Ex 24, rac cis-5-chloro-2-[4-(2-{2-[4-(1H-pyrazol-1-yl)phenoxy]ethyl}cyclopropyl)piperidin-1-yl]pyrimidine] was tested, and the EC50 was 50 to 200 nM.
With `Clc1cnc(N2CCC(C3CC3CCOc3cccc(-n4cncn4)c3)CC2)nc1` (racemic) [Ex 9, rac cis-5-chloro-2-[4-(2-{2-[3-(1H-1,2,4-triazol-1-yl)phenoxy]ethyl}cyclopropyl)piperidin-1-yl]pyrimidine] the EC50 was 50 to 200 nM.
With `Fc1cc(OCCC2CC2C2CCN(c3ncc(Cl)cn3)CC2)ccc1-n1cnnn1` (racemic) [Ex 30b, rac cis-5-chloro-2-[4-(2-{2-[3-fluoro-4-(1H-tetrazol-1-yl)phenoxy]ethyl}cyclopropyl)piperidin-1-yl]pyrimidine] the EC50 was under 10 nM.
`N#Cc1nccc(OCC[C@@H]2C[C@@H]2C2CCN(c3ncc(Cl)cn3)CC2)n1` (racemic) [Ex 38, Rac-cis-4-(2-{2-[1-(5-chloropyrimidin-2-yl)piperidin-4-yl]cyclopropyl}ethoxy)pyrimidine-2-carbonitrile] showed an EC50 of 10 to 50 nM.
Molecule `Cc1nc(C#N)cc(OCC[C@@H]2C[C@@H]2C2CCN(c3ncc(C)c(C)n3)CC2)n1` (racemic) [Ex 44, Rac-cis-6-(2-{2-[1-(4,5-dimethylpyrimidin-2-yl)piperidin-4-yl]cyclopropyl}ethoxy)-2-methylpyrimidine-4-carbonitrile] has an EC50 of 10 to 50 nM.
With `N#Cc1cncc(OCC[C@@H]2C[C@@H]2C2CCN(c3ncc(Cl)cn3)CC2)c1` (racemic) [Ex 50, Rac-cis-5-(2-{2-[1-(5-chloropyrimidin-2-yl)piperidin-4-yl]cyclopropyl}ethoxy)nicotinonitrile] the EC50 was 50 to 200 nM.
Work on `Cc1cc(OC[C@@H]2C[C@@H]2CC2CCN(c3ncc(Cl)cn3)CC2)nc(C#N)n1` (racemic) [Ex 118, rac-cis-4-[(2-{[1-(5-chloropyrimidin-2-yl)piperidin-4-yl]methyl}cyclopropyl)methoxy]-6-methylpyrimidine-2-carbonitrile] yielded an EC50 of 10 to 50 nM.
`Fc1cnc(N2CCC(C3CC3CCOc3ccc(-n4ccnn4)cc3)CC2)nc1` (single isomer, unassigned) [Ex 83bS, cis-5-fluoro-2-[4-(2-{2-[4-(1H-1,2,3-triazol-1-yl)phenoxy]ethyl}cyclopropyl)piperidin-1-yl]pyrimidine] showed an EC50 of under 10 nM.
For `N#Cc1ccc(OC[C@@H]2C[C@@H]2CC2CCN(c3ncc(Cl)cn3)CC2)cc1F` (racemic) [Ex 119, rac-cis 4-[(2-{[1-(5-chloropyrimidin-2-yl)piperidin-4-yl]methyl}cyclopropyl)methoxy]-2-fluorobenzonitrile], the EC50 was over 200 nM.
For `Clc1cnc(N2CCC(C3CC3CCOc3ccc(-n4cnnn4)cc3)CC2)nc1` (single isomer, unassigned) [Ex 83cF, cis-5-chloro-2-[4-(2-{2-[4-(1H-tetrazol-1-yl)phenoxy]ethyl}cyclopropyl)piperidin-1-yl]pyrimidine], the EC50 was under 10 nM.
`Clc1cnc(N2CCC([C@@H]3C[C@@H]3CCOc3ccc(-n4ccnn4)cc3)CC2)nc1` (single isomer, unassigned) [Ex 83aS, cis-5-chloro-2-[4-(2-{2-[4-(1H-1,2,3-triazol-1-yl)phenoxy]ethyl}cyclopropyl)piperidin-1-yl]pyrimidine] gave an EC50 of under 10 nM.
Molecule `N#Cc1ccc(OC[C@@H]2C[C@H]2CC2CCN(c3ncc(Cl)cn3)CC2)cc1F` [Ex 105, 4-[((1R,2R)-2-{[1-(5-chloropyrimidin-2-yl)piperidin-4-yl]methyl}cyclopropyl)methoxy]-2-fluorobenzonitrile] has an EC50 of over 200 nM.
`Fc1cnc(N2CCC(C3CC3CCOc3ccc(-n4ccnn4)cc3)CC2)nc1` (single isomer, unassigned) [Ex 83bF, cis-5-fluoro-2-[4-(2-{2-[4-(1H-1,2,3-triazol-1-yl)phenoxy]ethyl}cyclopropyl)piperidin-1-yl]pyrimidine] showed an EC50 of 50 to 200 nM.
`Cc1nnn(-c2ccc(OCCC3CC3C3CCN(c4ncc(Cl)cn4)CC3)cc2)n1` (racemic) [Ex 31a, rac cis-5-chloro-2-[4-(2-{2-[4-(5-methyl-2H-tetrazol-2-yl)phenoxy]ethyl}cyclopropyl)piperidin-1-yl]pyrimidine] showed an EC50 of under 10 nM.
Work on `Clc1cnc(N2CCC(C3CC3CCOc3ccc(-c4cn[nH]c4)cc3)CC2)nc1` (racemic) [Ex 23, rac cis-5-chloro-2-[4-(2-{2-[4-(1H-pyrazol-4-yl)phenoxy]ethyl}cyclopropyl)piperidin-1-yl]pyrimidine] yielded an EC50 of 50 to 200 nM.
Work on `Cc1nnc(-c2ccc(OCC[C@H]3C[C@H]3C3CCN(c4ncc(Cl)cc4Cl)CC3)cc2F)o1` (racemic) [Ex 88, Rac-cis-3,5-dichloro-2-[4-(2-{2-[3-fluoro-4-(5-methyl-1,3,4-oxadiazol-2-yl)phenoxy]ethyl}cyclopropyl)piperidin-1-yl]pyridine] yielded an EC50 of over 200 nM.
In the case of `Clc1cnc(N2CCC(C3CC3CCOc3ccc(-c4ncno4)cc3)CC2)nc1` (racemic) [Ex 18, rac cis-5-chloro-2-[4-(2-{2-[4-(1,2,4-oxadiazol-5-yl)phenoxy]ethy]}cyclopropyl)piperidin-1-yl]pyrimidine], the EC50 is reported as 50 to 200 nM.
Work on `Cc1nc(C#N)cc(OCC[C@@H]2C[C@@H]2C2CCN(c3cc(C)c(Cl)cn3)CC2)n1` (racemic) [Ex 45, Rac-cis-6-(2-{2-[1-(5-chloro-4-methylpyridin-2-yl)piperidin-4-yl]cyclopropyl}ethoxy)-2-methylpyrimidine-4-carbonitrile] yielded an EC50 of 10 to 50 nM.
`CS(=O)(=O)c1ccc(OC[C@H]2C[C@H]2CC2CCN(c3ncc(Cl)cn3)CC2)cc1` (racemic) [Ex 116, rac-cis-5-chloro-2-{-4-[(2-{[4-(methylsulfonyl)phenoxy]methyl}cyclopropyl)methyl]piperidin-1-yl}pyrimidine] showed an EC50 of over 200 nM.
`C[S+]([O-])c1ccc(OCCC2CC2C2CCN(c3ncc(Cl)cn3)CC2)cc1` (single isomer, unassigned) [Ex 33, Chiral-cis-5-chloro-2-[4-(2-{2-[4-(methylsulfinyl)phenoxy]ethyl}cyclopropyl)piperidin-1-yl]pyrimidine] gave an EC50 of under 10 nM.
`Cc1nnnn1-c1ccc(OCCC2CC2C2CCN(c3ncc(Cl)cn3)CC2)cc1` (racemic) [Ex 31b, rac cis-5-chloro-2-[4-(2-{2-[4-(5-methyl-1H-tetrazol-1-yl)phenoxy]ethyl}cyclopropyl)piperidin-1-yl]pyrimidine] showed an EC50 of 10 to 50 nM.
`Clc1cnc(N2CCC(C3CC3CCOc3ccc(-n4nccn4)cc3)CC2)nc1` (racemic) [Ex 28, rac cis-5-chloro-2-[4-(2-{2-[4-(2H-1,2,3-triazol-2-yl)phenoxy]ethyl}cyclopropyl)piperidin-1-yl]pyrimidine] showed an EC50 of 50 to 200 nM.
`O=S(=O)(c1ccc(OCCC2CC2C2CCN(c3ncc(Cl)cn3)CC2)cc1)C1CC1` (racemic) [Ex 13, rac cis-5-chloro-2-[4-(2-{2-[4-(cyclopropylsulfonyl)phenoxy]ethyl}cyclopropyl)piperidin-1-yl]pyrimidine] was tested, and the EC50 was 10 to 50 nM.
With `Clc1cnc(N2CCC(C3CC3CCOc3ccc(-c4cnn[nH]4)cc3)CC2)nc1` (racemic) [Ex 29, rac cis-5-chloro-2-[4-(2-{2-[4-(1H-1,2,3-triazol-5-yl)phenoxy]ethyl}cyclopropyl)piperidin-1-yl]pyrimidine] the EC50 was over 200 nM.
In the case of `Cc1nc(C#N)cc(OCCC2CC2C2CCN(c3ncc(Cl)cn3)CC2)n1` (single isomer, unassigned) [Ex 34, Chiral-cis-6-(2-{2-[1-(5-chloropyrimidin-2-yl)piperidin-4-yl]cyclopropyl}ethoxy)-2-methylpyrimidine-4-carbonitrile], the EC50 is reported as under 10 nM.
For `Clc1cnc(N2CCC(C3CC3CCOc3ccncc3)CC2)nc1` (racemic) [Ex 98, rac-trans-5-chloro-2-(4-{2-[2-(pyridin-4-yloxy)ethyl]cyclopropyl}piperidin-1-yl)pyrimidine], the EC50 was 50 to 200 nM.
`CS(=O)(=O)c1ccc(OCC[C@H]2C[C@H]2C2CCN(c3ncc(Cl)cn3)CC2)nc1` (racemic) [Ex 6a, rac-cis 5-chloro-2-{-4-[2-(2-{[5-(methylsulfonyl)pyridin-2-yl]oxy}ethyl)cyclopropyl]piperidin-1-yl}pyrimidine] gave an EC50 of under 10 nM.
For `Cc1cc(OCC[C@@H]2C[C@@H]2C2CCN(c3ncc(Cl)cn3)CC2)nc(C#N)n1` (racemic) [Ex 52, Rac-cis-4-(2-{2-[1-(5-chloropyrimidin-2-yl)piperidin-4-yl]cyclopropyl}ethoxy)-6-methylpyrimidine-2-carbonitrile], the EC50 was under 10 nM.
